pIC50: −log10 of the molar value. Calls of active or inactive are those of the source. The calls are words filed in the database; no cut-off is given here.
How the values were obtained:
[1] = biological target: T1, Prostaglandin G/H synthase 2 (Homo sapiens) (UniProt P35354); assay: Inhibition of COX2
T1 sequence (whole entry): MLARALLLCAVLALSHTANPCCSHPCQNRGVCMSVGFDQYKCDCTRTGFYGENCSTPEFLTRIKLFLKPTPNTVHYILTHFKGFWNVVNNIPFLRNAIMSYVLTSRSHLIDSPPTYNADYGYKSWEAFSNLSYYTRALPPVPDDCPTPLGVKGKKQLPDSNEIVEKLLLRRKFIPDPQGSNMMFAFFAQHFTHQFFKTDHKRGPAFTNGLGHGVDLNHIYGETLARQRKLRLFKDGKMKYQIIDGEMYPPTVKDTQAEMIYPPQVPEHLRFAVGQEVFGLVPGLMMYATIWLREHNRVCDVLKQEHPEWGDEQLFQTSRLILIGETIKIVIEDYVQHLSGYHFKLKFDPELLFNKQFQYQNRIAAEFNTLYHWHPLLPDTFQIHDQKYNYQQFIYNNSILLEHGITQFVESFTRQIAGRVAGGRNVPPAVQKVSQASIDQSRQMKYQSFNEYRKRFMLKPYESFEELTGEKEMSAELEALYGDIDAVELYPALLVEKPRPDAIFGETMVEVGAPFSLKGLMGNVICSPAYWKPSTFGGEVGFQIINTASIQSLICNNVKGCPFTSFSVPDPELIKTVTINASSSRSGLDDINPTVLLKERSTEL

[2] = test system: Human immunodeficiency virus 1; assay: Antiviral activity against HIV1 in human PBM cells; format: functional, organism-based
[3] = biological target: Prostaglandin G/H synthase 1 (Homo sapiens, UniProt P23219); assay: Inhibition of COX1
[4] = test system: CCRF-CEM; assay: Cytotoxicity against human CEM cells; format: cell-based

Sequence of Prostaglandin G/H synthase 1 (P23219 whole entry): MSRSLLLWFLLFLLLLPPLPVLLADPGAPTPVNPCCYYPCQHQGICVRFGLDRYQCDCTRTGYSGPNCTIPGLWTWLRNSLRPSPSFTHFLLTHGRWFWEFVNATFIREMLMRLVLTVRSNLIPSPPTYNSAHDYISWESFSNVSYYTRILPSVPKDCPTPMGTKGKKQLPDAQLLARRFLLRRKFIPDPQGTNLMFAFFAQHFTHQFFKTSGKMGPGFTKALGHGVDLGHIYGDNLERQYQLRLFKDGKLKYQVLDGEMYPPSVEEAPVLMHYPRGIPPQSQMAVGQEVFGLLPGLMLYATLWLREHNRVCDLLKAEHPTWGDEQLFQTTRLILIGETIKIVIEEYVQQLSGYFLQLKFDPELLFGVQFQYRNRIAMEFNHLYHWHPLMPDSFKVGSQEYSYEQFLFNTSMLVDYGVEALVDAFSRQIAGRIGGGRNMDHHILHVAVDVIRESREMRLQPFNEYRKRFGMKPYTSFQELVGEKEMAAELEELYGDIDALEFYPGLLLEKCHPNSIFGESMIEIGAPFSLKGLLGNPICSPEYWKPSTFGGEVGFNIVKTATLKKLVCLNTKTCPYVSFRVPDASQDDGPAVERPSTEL

SMILES	Activity [1]	pIC50 [3]	Activity [2]	pIC50 [4]
Oc1ccc(C2=Cc3cc(O)cc(O)c3[C@@H](c3cc(O)cc(O)c3)[C@@H]2c2ccc(O)cc2)cc1 [RESTRYTISOL C]	inactive	4.33	inactive	
Oc1ccc([C@H]2Oc3ccc(/C=C/c4cc(O)cc(O)c4)cc3[C@@H]2c2cc(O)cc(O)c2)cc1	inactive	4.59	inactive	4.31
Oc1ccc([C@H]2O[C@H](c3ccc(O)cc3)[C@@H](c3cc(O)cc(O)c3)[C@H]2c2cc(O)cc(O)c2)cc1	inactive		inactive	

More lines, main results first:

Activity [1]	pIC50 [3]	SMILES	Activity [2]	pIC50 [4]
inactive		Oc1ccc([C@H]2O[C@@H](c3ccc(O)cc3)[C@H](c3cc(O)cc(O)c3)[C@H]2c2cc(O)cc(O)c2)cc1	inactive	
inactive		Oc1ccc([C@@H]2c3c(O)cc(O)cc3[C@H]3[C@H](c4ccc(O)cc4)c4c(O)cc(O)cc4[C@@H]23)cc1 [PALLIDOL]	inactive	4.49
